Assay results reported in patent EP4778932A1 (priority 2023, dated 2025).

What was measured:
[1] = system: MDA-MB-231; experiment: cells; assay type: cell-based; details: Homo sapiens, 120 h; MDA-MB-231 cells, five days co-incubation; read-out: IC50 (nM) MDA-MB-231
Protocol: (§1) MDA-MB-231, OV90, and NCI-N87 cells at defined cell densities (1,500 cells per well, 80 µL volume) were seeded into 96-well plates. The cells were cultured overnight in a constant-temperature incubator (37°C, 5% CO2). Ecteinascidin derivative solutions at a maximum concentration of 2 mM were first prepared in DMSO, and serial 1:4 gradient dilutions were performed. 1 µL of each DMSO-prepared dilution was added to 99 µL of PBS containing 10% FBS per well and mixed thoroughly. The diluted solutions (2 µL of diluted solution and 18 µL of PBS containing 10% FBS per well) were then co-incubated with the cells (37°C, 5% CO2) for five days, after which CellTiter-Glo reagent (40 µL per well) was added, and […] values were measured using an i3x microplate reader.

[2] = system: NCI-N87; experiment: cells; assay type: cell-based; details: Homo sapiens, 120 h; NCI-N87 cells, five days co-incubation; read-out: IC50 (nM) NCI-N87
Protocol: as §1

[3] = system: OV90; experiment: cells; assay type: cell-based; details: Homo sapiens, OV-90, 120 h; OV90 cells, five days co-incubation; read-out: IC50 (nM) OV90
Protocol: as §1

[4] = system: MDA-MB-231, OV90, and NCI-N87 cells; experiment: Tumor cell proliferation inhibition assay of novel ecteinascidin derivatives, summary over the three cell lines; assay type: cell-based; details: compared with trabectedin and lurbinectedin
Protocol: as §1, with “The” for “MDA-MB-231, OV90, and NCI-N87 cells at defined cell densities (1,500 cells per well, 80 µL volume) were seeded into 96-well plates. The”

[5] = system: specific soft tissue sarcomas; details: cited from earlier work
[6] = 378 patients who received at least one dose; cited from earlier work

## COc1cc2c(cc1N)C(C)(C)CN[C@]21CS[C@@H]2c3c(OC(C)=O)c(C)c4c(c3[C@H](COC1=O)N1[C@@H]2[C@H]2c3c(cc(C)c(OC)c3O)C[C@@H]([C@@H]1O)N2C)OCO4 [P52]
[1]
  IC50: < 1 nM
[2]
  IC50: < 1 nM
[3]
  IC50: < 1 nM
[4]
  in-vitro cytotoxic activities: superior to or comparable to those of trabectedin and lurbinectedin

## COc1cc2c(cc1NC(=O)C(O)C1CC1)CCN[C@]21CS[C@@H]2c3c(OC(C)=O)c(C)c4c(c3[C@H](COC1=O)N1[C@@H]2[C@H]2c3c(cc(C)c(OC)c3O)C[C@@H]([C@@H]1C#N)N2C)OCO4 (stereo partly drawn) [P58]
[1]
  IC50: < 1 nM
[2]
  IC50: < 1 nM
[3]
  IC50: < 1 nM
[4]
  in-vitro cytotoxic activities: superior to or comparable to those of trabectedin and lurbinectedin

## COc1cc2c(cc1NC(=O)[C@H]1C[C@@H](O)C1)CCN[C@]21CS[C@@H]2c3c(OC(C)=O)c(C)c4c(c3[C@H](COC1=O)N1[C@@H]2[C@H]2c3c(cc(C)c(OC)c3O)C[C@@H]([C@@H]1C#N)N2C)OCO4 [P74]
[1]
  IC50: < 1 nM
[2]
  IC50: < 1 nM
[3]
  IC50: < 1 nM
[4]
  in-vitro cytotoxic activities: superior to or comparable to those of trabectedin and lurbinectedin

## COc1cc2c(cc1NC(=O)[C@H]1C[C@H](O)C1)CCN[C@]21CS[C@@H]2c3c(OC(C)=O)c(C)c4c(c3[C@H](COC1=O)N1[C@@H]2[C@H]2c3c(cc(C)c(OC)c3O)C[C@@H]([C@@H]1C#N)N2C)OCO4 [P75]
[1]
  IC50: < 1 nM
[2]
  IC50: < 1 nM
[3]
  IC50: < 1 nM
[4]
  in-vitro cytotoxic activities: superior to or comparable to those of trabectedin and lurbinectedin

## COc1c(C)cc2c(c1O)[C@@H]1[C@@H]3[C@@H]4SC[C@]5(NCCc6cc(NC(=O)CO)c(F)cc65)C(=O)OC[C@@H](c5c6c(c(C)c(OC(C)=O)c54)OCO6)N3[C@@H](C#N)[C@H](C2)N1C [P85]
[1]
  IC50: < 1 nM
[2]
  IC50: < 1 nM
[3]
  IC50: < 1 nM
[4]
  in-vitro cytotoxic activities: superior to or comparable to those of trabectedin and lurbinectedin

## COc1cc2c(cc1NC(=O)CO)C(C)(C)CN[C@]21CS[C@@H]2c3c(OC(C)=O)c(C)c4c(c3[C@H](COC1=O)N1[C@@H]2[C@H]2c3c(cc(C)c(OC)c3O)C[C@@H]([C@@H]1C#N)N2C)OCO4 [P96]
[1]
  IC50: < 1 nM
[2]
  IC50: < 1 nM
[3]
  IC50: < 1 nM
[4]
  in-vitro cytotoxic activities: superior to or comparable to those of trabectedin and lurbinectedin

## COc1c(C)cc2c(c1O)[C@@H]1[C@@H]3[C@@H]4SC[C@]5(NCCc6c5ccc(N)c6OC)C(=O)OC[C@@H](c5c6c(c(C)c(OC(C)=O)c54)OCO6)N3[C@@H](C#N)[C@H](C2)N1C [P166]
[1]
  IC50: < 1 nM
[2]
  IC50: < 1 nM
[3]
  IC50: < 1 nM
[4]
  in-vitro cytotoxic activities: superior to or comparable to those of trabectedin and lurbinectedin

## COc1c(C)cc2c(c1O)[C@@H]1[C@@H]3[C@@H]4SC[C@]5(NCCc6c5ccc(NC(=O)CO)c6OC)C(=O)OC[C@@H](c5c6c(c(C)c(OC(C)=O)c54)OCO6)N3[C@@H](C#N)[C@H](C2)N1C [P170]
[1]
  IC50: < 1 nM
[2]
  IC50: < 1 nM
[3]
  IC50: < 1 nM
[4]
  in-vitro cytotoxic activities: superior to or comparable to those of trabectedin and lurbinectedin

## COc1c(C)cc2c(c1O)[C@@H]1[C@@H]3[C@@H]4SC[C@]5(NCCc6cc(N)c(C)cc65)C(=O)OC[C@@H](c5c6c(c(C)c(OC(C)=O)c54)OCO6)N3[C@@H](C#N)[C@H](C2)N1C [P172]
[1]
  IC50: < 1 nM
[2]
  IC50: < 1 nM
[3]
  IC50: < 1 nM
[4]
  in-vitro cytotoxic activities: superior to or comparable to those of trabectedin and lurbinectedin

## COc1cc(N)cc2c1[C@@]1(CS[C@@H]3c4c(OC(C)=O)c(C)c5c(c4[C@H](COC1=O)N1[C@@H]3[C@H]3c4c(cc(C)c(OC)c4O)C[C@@H]([C@@H]1C#N)N3C)OCO5)NCC2 [T1]
[1]
  IC50: < 1 nM
[2]
  IC50: < 1 nM
[3]
  IC50: < 1 nM
[4]
  in-vitro cytotoxic activities: superior to or comparable to those of trabectedin and lurbinectedin

## COc1c(C)cc2c(c1O)[C@@H]1[C@@H]3[C@@H]4SC[C@]5(NCC(C)(C)c6cc(N)c(F)cc65)C(=O)OC[C@@H](c5c6c(c(C)c(OC(C)=O)c54)OCO6)N3[C@@H](C#N)[C@H](C2)N1C [T3]
[1]
  IC50: < 1 nM
[2]
  IC50: < 1 nM
[3]
  IC50: < 1 nM
[4]
  in-vitro cytotoxic activities: superior to or comparable to those of trabectedin and lurbinectedin

## COc1c(C)cc2c(c1O)[C@@H]1[C@@H]3[C@@H]4SC[C@]5(NCCc6cc(NC(=O)C7(O)CC7)c(F)cc65)C(=O)OC[C@@H](c5c6c(c(C)c(OC(C)=O)c54)OCO6)N3[C@@H](C#N)[C@H](C2)N1C [T4]
[1]
  IC50: < 1 nM
[2]
  IC50: < 1 nM
[3]
  IC50: < 1 nM
[4]
  in-vitro cytotoxic activities: superior to or comparable to those of trabectedin and lurbinectedin

## COc1cc2c(cc1N)C(OC)CN[C@]21CS[C@@H]2c3c(OC(C)=O)c(C)c4c(c3[C@H](COC1=O)N1[C@@H]2[C@H]2c3c(cc(C)c(OC)c3O)C[C@@H]([C@@H]1C#N)N2C)OCO4 (stereo partly drawn) [T10]
[1]
  IC50: < 1 nM
[2]
  IC50: < 1 nM
[3]
  IC50: < 1 nM
[4]
  in-vitro cytotoxic activities: superior to or comparable to those of trabectedin and lurbinectedin

## COc1cc2c(cc1N(C)C(=O)CO)CCN[C@]21CS[C@@H]2c3c(OC(C)=O)c(C)c4c(c3[C@H](COC1=O)N1[C@@H]2[C@H]2c3c(cc(C)c(OC)c3O)C[C@@H]([C@@H]1C#N)N2C)OCO4 [T17]
[1]
  IC50: < 1 nM
[2]
  IC50: < 1 nM
[3]
  IC50: < 1 nM
[4]
  in-vitro cytotoxic activities: superior to or comparable to those of trabectedin and lurbinectedin

## COc1cc2c(cc1O)CCN[C@]21CS[C@@H]2c3c(OC(C)=O)c(C)c4c(c3[C@H](COC1=O)N1[C@@H]2[C@H]2c3c(cc(C)c(OC)c3O)C[C@@H]([C@@H]1O)N2C)OCO4 [Trabectedin]
[1]
  IC50: 1 to 10 nM
[2]
  IC50: < 1 nM
[3]
  IC50: 10 to 200 nM
[5]; disease progression or death, 95% CI: 0.44-0.70, p<0.001
  HR: 0.55
[5]; more than 500 patients
  median OS: 13.7 months
  risk of disease progression or death was reduced: 45%
[5]; more than 500 patients, n=345, 95% CI: 3.0-4.8 months
  median PFS: 4.2 months
[6]
  adverse reactions: constipation: 37%
  adverse reactions: decreased appetite: 37%
  adverse reactions: diarrhea: 35%
  adverse reactions: dyspnea: 25%
  adverse reactions: fatigue: 69%
  adverse reactions: headache: 25%
  adverse reactions: nausea: 75%
  adverse reactions: peripheral edema: 28%
  adverse reactions: vomiting: 46%
  grade 3-4 laboratory abnormalities: alanine transaminase (ALT) increase: 31%
  grade 3-4 laboratory abnormalities: anemia: 19%
  grade 3-4 laboratory abnormalities: aspartate transaminase (AST) increase: 17%
  grade 3-4 laboratory abnormalities: creatine kinase increase: 6.4%
  grade 3-4 laboratory abnormalities: neutropenia: 43%
  grade 3-4 laboratory abnormalities: thrombocytopenia: 21%
